# Test results: patent publication US20050281891A1, “Testosterone stimulant” (Ecobio, Inc., priority 2004, published 2005)
# Test system: systemic testosterone levels
# Experiment: Testosterone stimulation in rats: iron, chitosan and iron chitosan chelate vs placebo
# Format: in vivo, Sprague Dawley rats
# Details: 8-week old rats, oral 200 μL twice a day for 7 days; 0.12 wt % iron lactate, 1 wt % chitosan or 1 wt % iron chitosan chelate
# Method: The effects of an iron chitosan chelate, chitosan, and iron on systemic testosterone levels in test groups of 8-week old Sprague Dawley rats is observed and compared to a control group. Each of the groups includes 8 rats. The rats of each group are orally administered a liquid composition twice a day, where group 1 receives a carrier composition in the form of a placebo, group 2 receives the carrier enhanced with 200 μL of 0.12 wt % iron lactate, group 3 receives the carrier enhanced with 200 μL of 1 wt % chitosan having a weight average molecular weight of 19,500 Mw, and group 4 receives the carrier enhanced with 200 μL of 1 wt % iron chitosan chelate (chitosan weight average molecular weight 19,500 Mw). The effects of the iron, chitosan, and iron chitosan chelate in systemic testosterone levels are compared to the systemic testosterone levels of the rats administered with the carrier placebo alone. After 7 days of dosing the 4 rat groups twice per day, the impact of the test groups compared to the control group on the rats testosterone levels is recorded, and is set forth in Table 1.
structure (smiles),measurement,value
"CC(O)C(=O)[O-].CC(O)C(=O)[O-].[Fe+2] (centres unmarked) [Iron, iron lactate]",% Increase from Placebo,˜0%
same,Testosterone Level,358.1 ± 23.6 (pg/100 μL)
